The values below come from ChEMBL document CHEMBL1764964, “Extending SAR of bile acids as FXR ligands: discovery of 23-N-(carbocinnamyloxy)-3α,7α-dihydroxy-6α-ethyl-24-nor-5β-cholan-23-amine” (Bioorg Med Chem, 2011).

Usually EC50 stands for the concentration at which the effect is half-maximal.

The target in assay [1] is T1, G-protein coupled bile acid receptor 1 (Homo sapiens, UniProt Q8TDU6).
T1 sequence (Q8TDU6 whole entry): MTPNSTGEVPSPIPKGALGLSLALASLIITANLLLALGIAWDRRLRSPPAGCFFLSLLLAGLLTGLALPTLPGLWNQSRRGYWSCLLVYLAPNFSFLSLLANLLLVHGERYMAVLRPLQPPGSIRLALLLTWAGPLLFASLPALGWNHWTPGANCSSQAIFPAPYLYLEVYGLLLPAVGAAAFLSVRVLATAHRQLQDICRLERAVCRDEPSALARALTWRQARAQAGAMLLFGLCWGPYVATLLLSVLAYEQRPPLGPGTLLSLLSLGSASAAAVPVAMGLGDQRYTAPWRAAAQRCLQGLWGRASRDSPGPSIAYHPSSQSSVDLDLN
The assay can be described thus: Agonist activity at human TGR5 receptor expressed in NCI-H716 cells assessed as intracellular cAMP level by TR-FRET assay. The format is functional, cell-based. (In general: Changes in cAMP serve as a functional read-out for many G protein-coupled receptors.)

For assay [2], the target named is T2, Bile acid receptor (Homo sapiens) (UniProt Q96RI1).
T2 sequence (whole entry): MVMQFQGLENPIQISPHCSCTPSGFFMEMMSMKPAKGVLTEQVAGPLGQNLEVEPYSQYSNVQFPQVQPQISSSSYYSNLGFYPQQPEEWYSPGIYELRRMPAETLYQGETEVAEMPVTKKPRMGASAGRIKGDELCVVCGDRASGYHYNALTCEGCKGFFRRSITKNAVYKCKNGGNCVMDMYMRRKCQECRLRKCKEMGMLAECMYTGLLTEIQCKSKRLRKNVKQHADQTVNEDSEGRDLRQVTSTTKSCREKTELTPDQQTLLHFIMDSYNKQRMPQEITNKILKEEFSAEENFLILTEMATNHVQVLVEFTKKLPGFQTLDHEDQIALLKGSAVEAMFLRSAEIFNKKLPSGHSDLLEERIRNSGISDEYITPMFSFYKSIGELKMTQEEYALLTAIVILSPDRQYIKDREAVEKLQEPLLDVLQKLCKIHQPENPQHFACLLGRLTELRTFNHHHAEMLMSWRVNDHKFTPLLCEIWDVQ
The assay can be described thus: Agonist activity at human FXR expressed in HepG2 cells assessed as renilla luciferase activity at 1 uM by luciferase based transactivation assay. The format is functional, cell-based.

The next assay concerns the target T3, Bile acid receptor (Homo sapiens, UniProt Q96RI1).
T3 sequence (Q96RI1 whole entry): T2 sequence (whole entry)
In words: Agonist activity at human GST-fused FXR LBD assessed as coactivator interaction with receptor ligand binding domain by Alphascreen assay. For orientation: Bead proximity is the source of the signal in Alpha formats.

Assay [3] concerns the target T2, Bile acid receptor (Homo sapiens). In words: Agonist activity at human GST-fused FXR LBD assessed as coactivator interaction with receptor ligand binding domain by Alphascreen assay relative to CDCA.
Assay [4] has the same target. The assay can be described thus: Agonist activity at human FXR expressed in HepG2 cells assessed as renilla luciferase activity at 20 uM by luciferase based transactivation assay. The format is functional, cell-based.

Calls of active or inactive are those of the source. No cut-off for these calls is given here.

Consider `CC[C@H]1[C@@H](O)[C@@H]2[C@H](CC[C@]3(C)[C@@H]([C@H](C)CCNC(=O)OC/C=C/c4ccccc4)CC[C@@H]23)[C@@]2(C)CC[C@@H](O)C[C@@H]12`, for which the concentration giving a half-maximal response (EC50) in assay [1] was found to be 55 µM; at Bile acid receptor, 0.15 µM. For the same molecule, the outcome in assay [2] was Active. In addition, in assay [3], the Efficacy was 290%.

As to `C[C@H](CCNC(=O)OC/C=C/c1ccccc1)C1CC[C@H]2[C@@H]3[C@H](O)CC4C[C@H](O)CC[C@]4(C)[C@H]3CC[C@]12C` (stereo partly drawn), the half-maximal effective concentration (EC50) in assay [1] was greater than 100 µM; at Bile acid receptor it was 0.9 µM. Besides, in assay [4], the outcome was Active. Further, the Efficacy in assay [3] is 55%.
